Patent US20150290200A1, “INTRACELLULAR KINASE INHIBITORS” (Pharmacyclics Inc., priority 2006, published 2015)
Where two headings read alike, the source gives them in different places.

Columns and labels:
ITK kinase domain = molecular target: T1, ITK kinase domain (Homo sapiens, UniProt Q08881); assay: In vitro kinase assay (HITHUNTER enzyme fragment complementation), ITK; format: biochemical
T1 construct: N-terminally His-tagged ITK kinase domain (amino acids 352-617); His (N); made in house
T1 sequence (Q08881 352-617): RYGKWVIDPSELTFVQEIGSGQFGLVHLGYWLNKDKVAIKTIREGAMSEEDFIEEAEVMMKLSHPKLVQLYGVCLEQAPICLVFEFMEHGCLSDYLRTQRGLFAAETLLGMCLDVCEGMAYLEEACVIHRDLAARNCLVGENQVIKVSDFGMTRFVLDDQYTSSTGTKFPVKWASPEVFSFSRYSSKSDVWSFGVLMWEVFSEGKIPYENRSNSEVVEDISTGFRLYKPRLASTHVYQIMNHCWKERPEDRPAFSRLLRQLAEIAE
Experimental: Compounds were screened using the HITHUNTER™ enzyme fragment complementation method (Discoverx). Briefly, a recombinantly produced, N-terminally His-tagged ITK kinase domain (amino acids 352-617) was incubated with various concentrations of individual compounds. ATP and substrate were added, and the kinase reaction was allowed to proceed for 2-16 hours. Commercially available detection reagents were added and allowed to react for 2-4 hours. The reaction was evaluated by luminescence. Initial results were confirmed using full-length recombinant ITK protein.
In order to confirm the mechanism by which compounds depicted herein interact with the kinase domain of Tec and EGFR kinases, we created a point mutant of the ITK kinase domain, whereby the key amino acid, namely C442 was mutated to alanine. The protein was expressed in a commercial baculovirus expression system using the manufacturer's general protocol (Invitrogen, pBlueBac). Protein was expressed and purified using standard techniques. […] While the activity of WT-ITK was inhibited by compounds depicted in this application, the same compounds had no activity towards the C442A mutant kinase domain.

BTK kinase domain = molecular target: T2, BTK kinase domain (Homo sapiens, UniProt Q06187); assay: In vitro kinase assay (HITHUNTER), BTK; format: biochemical
T2 construct: The kinase domains of BTK, LCK and ERK were expressed as recombinant purified proteins; made in house
Excerpt: Similarly, commercially available reagents such as HITHUNTER™ were used to evaluate the effect of compounds on the activity of additional kinases. The kinase domains of BTK, LCK and ERK were expressed as recombinant purified proteins were used for these studies.

[1] = Table 3, Compound, read-out: IC50 ITK
[2] = Table 3, naphthyl analog, read-out: IC50 ITK

T2 sequence (Q06187 402-655 limits assumed): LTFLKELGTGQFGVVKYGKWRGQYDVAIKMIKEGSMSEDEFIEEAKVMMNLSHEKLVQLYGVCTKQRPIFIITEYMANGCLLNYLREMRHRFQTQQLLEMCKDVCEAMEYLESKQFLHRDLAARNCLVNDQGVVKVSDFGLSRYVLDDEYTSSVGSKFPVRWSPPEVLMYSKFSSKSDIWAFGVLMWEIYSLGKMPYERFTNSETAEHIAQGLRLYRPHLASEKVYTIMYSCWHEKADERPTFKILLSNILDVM

O=C(CCN1CCc2ccccc2C1)c1ccc2ccccc2c1 [drawing 209]
IC50 (ITK kinase domain; Table 5, read-out: IC50 ITK): 21.2 nM

NCC1CCN(CCC(=O)c2ccc3ccccc3c2)CC1
IC50 (BTK kinase domain; Table 5): 84 nM | IC50 (ITK kinase domain; Table 5, read-out: IC50 ITK): 86 nM

CC(C)(C)C(=O)N1CCN(CCC(=O)c2ccc3ccccc3c2)CC1
IC50 (BTK kinase domain; Table 5): 360 nM | IC50 (ITK kinase domain; Table 5, read-out: IC50 ITK): 64 nM

O=C(CCN1CCC(Cc2ccccc2)CC1)c1ccc2ccccc2c1 [drawing 204]
IC50 (BTK kinase domain; Table 5): 128 nM | IC50 (ITK kinase domain; Table 5, read-out: IC50 ITK): 60.2 nM

O=C(CCN1Cc2ccccc2C1)c1ccc2ccccc2c1 [drawing 114]
IC50 (ITK kinase domain; Table 1, ITK, read-out: IC50): 28.6 nM

O=C(CCN1CCOCC1)c1ccc2ccccc2c1 [drawing 117]
IC50 (ITK kinase domain; Table 1, ITK, read-out: IC50): 71.9 nM

CN(C)CCN1CCN(CCC(=O)c2ccc3c(c2)NC(=O)CO3)CC1
IC50 (BTK kinase domain; Table 3, Compound): 481 nM | IC50 (ITK kinase domain; [1]): 18 nM

O=C(CCN1CCOCC1)c1cc2ccccc2s1
IC50 (BTK kinase domain; Table 4): 17 nM | IC50 (ITK kinase domain; Table 4, read-out: IC50 ITK): 10 nM

O=C(CCN1CCC(CNC(=O)C(F)(F)F)CC1)c1ccc2ccccc2c1
IC50 (BTK kinase domain; Table 5): 266 nM | IC50 (ITK kinase domain; Table 5, read-out: IC50 ITK): 217 nM

O=C(CCN1CCOCC1)c1c[nH]c2ccccc12
IC50 (BTK kinase domain; Table 4): 8170 nM | IC50 (ITK kinase domain; Table 4, read-out: IC50 ITK): 176 nM

O=C(CCN1CCc2ccccc2C1)c1ccc2ccccc2c1 [drawing 115]
IC50 (ITK kinase domain; Table 1, ITK, read-out: IC50): 18.3 nM

O=C(CCN1CCOCC1)c1ccc2ccccc2c1 [drawing 167]
IC50 (BTK kinase domain; Table 3, naphthyl analog): 39.5 nM | IC50 (ITK kinase domain; [2]): 20 nM

COc1cc2c(cc1OC)CN(CCC(=O)c1ccc3ccccc3c1)CC2 [drawing 116]
IC50 (ITK kinase domain; Table 1, ITK, read-out: IC50): 0.85 nM

CN(C)C1CCN(CCC(=O)c2ccc3ccccc3c2)C1 (centres unmarked) [drawing 171]
IC50 (BTK kinase domain; Table 3, naphthyl analog): 2.15 nM | IC50 (ITK kinase domain; [2]): 7 nM

O=C(CCN1CCOCC1)c1n[nH]c2ccccc12
IC50 (BTK kinase domain; Table 4): 296 nM | IC50 (ITK kinase domain; Table 4, read-out: IC50 ITK): 49 nM

CC(=O)N1CCN(CCC(=O)c2ccc3ccccc3c2)CC1
IC50 (BTK kinase domain; Table 5): 89 nM | IC50 (ITK kinase domain; Table 5, read-out: IC50 ITK): 66 nM

O=C(CCN1CCSCC1)c1ccc2ccccc2c1
IC50 (BTK kinase domain; Table 5): 71 nM | IC50 (ITK kinase domain; Table 5, read-out: IC50 ITK): 31 nM

O=C(CCN1CCOCC1)c1ccc2occc2c1 [drawing 192]
IC50 (BTK kinase domain; Table 4): 2040 nM | IC50 (ITK kinase domain; Table 4, read-out: IC50 ITK): 75 nM

O=C(CCN1CCCC1)c1ccc2ccccc2c1 [drawing 184]
IC50 (ITK kinase domain; Table 4, read-out: IC50 ITK): 74.9 nM

NC(=O)N1CCN(CCC(=O)c2ccc3ccccc3c2)CC1
IC50 (BTK kinase domain; Table 5): 153 nM | IC50 (ITK kinase domain; Table 5, read-out: IC50 ITK): 23 nM

O=CNc1ccc2cc(C(=O)CCN3CCOCC3)ccc2c1
IC50 (BTK kinase domain; Table 4): 2 nM | IC50 (ITK kinase domain; Table 4, read-out: IC50 ITK): 42 nM

CC(C)(CN1CCCCC1)C(=O)c1ccc2ccccc2c1
IC50 ITK (ITK kinase domain; Table 7, elimination mechanism): no IC50

O=C(CCN1CCCCNC1)c1ccc2ccccc2c1
IC50 (BTK kinase domain; Table 5): 51 nM | IC50 (ITK kinase domain; Table 5, read-out: IC50 ITK): 87 nM

O=C1COc2ccc(C(=O)CCN3CCOCC3)cc2N1 [drawing 166]
IC50 (BTK kinase domain; Table 3, Compound): 781 nM | IC50 (ITK kinase domain; [1]): 5.9 nM

CN(C)C1CCN(CCC(=O)c2ccc3c(c2)NC(=O)CO3)CC1
IC50 (BTK kinase domain; Table 3, Compound): 150 nM | IC50 (ITK kinase domain; [1]): 13 nM

O=C(CCN1CCOCC1)c1ccc2sccc2c1
IC50 (BTK kinase domain; Table 4): 334 nM | IC50 (ITK kinase domain; Table 4, read-out: IC50 ITK): 60 nM

CN(CCC(=O)c1ccc2ccccc2c1)Cc1ccco1 [drawing 215]
IC50 (ITK kinase domain; Table 5, read-out: IC50 ITK): 18.7 nM

CC1CCN(CCC(=O)c2ccc3ccccc3c2)CC1
IC50 (ITK kinase domain; Table 5, read-out: IC50 ITK): 310 nM

O=C(CCN1CCS(=O)(=O)CC1)c1ccc2ccccc2c1
IC50 (BTK kinase domain; Table 5): 117 nM | IC50 (ITK kinase domain; Table 5, read-out: IC50 ITK): 66 nM

O=C(CCN1CCOCC1)c1ccc2ccccc2c1 [drawing 200]
IC50 (BTK kinase domain; Table 5): 39.5 nM | IC50 (ITK kinase domain; Table 5, read-out: IC50 ITK): 20.5 nM

O=C(CCN1CCN(C(=O)N2CCOCC2)CC1)c1ccc2ccccc2c1
IC50 (BTK kinase domain; Table 5): 242 nM | IC50 (ITK kinase domain; Table 5, read-out: IC50 ITK): 60 nM

O=C(CCN1CCCC1)c1ccc2ccccc2c1 [drawing 201]
IC50 (BTK kinase domain; Table 5): 8220 nM | IC50 (ITK kinase domain; Table 5, read-out: IC50 ITK): 137 nM

O=C(CCN1CCN(c2ccccn2)CC1)c1ccc2ccccc2c1 [drawing 205]
IC50 (ITK kinase domain; Table 5, read-out: IC50 ITK): 14.8 nM

O=C(CCN1CCN(CC2CCCCC2)CC1)c1ccc2ccccc2c1 [drawing 219]
IC50 (ITK kinase domain; Table 5, read-out: IC50 ITK): 14.7 nM

CC(C)N(CCC(=O)c1ccc2ccccc2c1)C(C)C [drawing 104]
IC50 (ITK kinase domain; Table 1, ITK, read-out: IC50): 18.1 nM

O=C(CCN1CCNCC1)c1ccc2ccccc2c1
IC50 (BTK kinase domain; Table 5): 410 nM | IC50 (ITK kinase domain; Table 5, read-out: IC50 ITK): 117 nM

CC(C)C1CCN(CCC(=O)c2ccc3ccccc3c2)C1 (centres unmarked)
IC50 (ITK kinase domain; Table 1, ITK, read-out: IC50): 6.86 nM

CC1CCCN1CCC(=O)c1ccc2ccccc2c1 (centres unmarked)
IC50 (ITK kinase domain; Table 5, read-out: IC50 ITK): 852 nM

O=C(CCN1CCOCC1)c1cc2ccccc2cn1 [drawing 187]
IC50 BTK (BTK kinase domain; Table 4): no IC50 | IC50 (ITK kinase domain; Table 4, read-out: IC50 ITK): 1680 nM

O=C(CCN1CCC(c2ccccn2)C1)c1ccc2ccccc2c1 (centres unmarked)
IC50 (ITK kinase domain; Table 5, read-out: IC50 ITK): 35.9 nM

CC(C)CN(C)CCC(=O)c1ccc2ccccc2c1
IC50 (ITK kinase domain; Table 1, ITK, read-out: IC50): 13.6 nM

O=C(CCN1CCC(c2ccccc2)C1)c1ccc2ccccc2c1 (centres unmarked)
IC50 (ITK kinase domain; Table 4, read-out: IC50 ITK): 22.8 nM

CC(C)N(CCC(=O)c1ccc2ccccc2c1)C(C)C [drawing 220]
IC50 (ITK kinase domain; Table 5, read-out: IC50 ITK): 9.2 nM
